According to patent US20250228801A1, “USE OF Galectin-1 INHIBITOR IN PREPARATION OF DRUG FOR TREATING PULMONARY FIBROSIS” (Institute of Basic Medical Sciences, CAMS, priority 2024, published 2025):

Tests used:
Galectin-1 = Galectin-1 levels in silicosis mice (qPCR of lung tissue, ELISA of BALF); assay type: in vivo, mouse
Excerpt: (§1) Male C57BL/6J mice (aged 8 weeks and weighing 25-30 g) were selected and housed in an SPF grade laboratory animal room, and the model of silicosis was constructed by one-time intratracheal instillation of silica (Si); the mice were divided into four groups (n=9): • 1) PBS+vehicle group: tracheal infusion of PBS, intraperitoneal injection of vehicle (10% DMSO+90% corn oil) 2 weeks later, once every other day for 3 weeks; • 2) PBS+OTX008 group: PBS was given by tracheal infusion, and 2 weeks later, OTX008 (5 mg/kg) was given by intraperitoneal injection, once every other day for 3 weeks; • 3) Si+vehicle group: Silica suspension (300 mg/mL, 40 μL) was given tracheal infusion, and vehicle (10% DMSO+90% corn oil) was given intraperitoneal injection 2 weeks later, once every other day for 3 weeks; and • 4) Si+OTX008 group: Silica suspension (300 mg/mL, 40 μL) was given tracheal infusion, and OTX008 (5 mg/kg) was given intraperitoneal injection 2 weeks later, once every other day for 3 weeks.
(§2) All mice were sacrificed after the administration, and the corresponding samples were collected for detection.
(§3) Concentrations of inflammatory factors IL-1β and IL-6 as well as Galectin-1 in mouse BALF were detected by using ELISA kits.
(§4) Lung tissue RNA of all mice was extracted; cDNA was obtained by using a reverse transcription kit (KR103, Tiangen Biotechnology, Beijing, China); qPCR was conducted by using a SYBR Green I Q-PCR Kit (TransGen Biotech, Beijing China); data collection and analysis were conducted by Bio-Rad IQ5 system.

silicosis mice [1] = assay: Pulmonary function test in silicosis mouse model; assay type: in vivo; details: OTX008 5 mg/kg i.p.
Excerpt: as §1
Anesthetized mice were fixed on an experimental table, and mouse lung function was detected by a pulmonary function testing system (DSI Buxco, USA). Before experiment, the mouse was anesthetized by intraperitoneal injection of 0.4 mL/100 g 2% pentobarbital, tracheotomy was performed, a trachea cannula was inserted, and a ventilator was connected. Next, FRC, PV, FV, and RC were automatically tested by a PET system. Indicators closely related to lung function changes in silicosis for statistical analysis, including lung volume indicators such as IC, and pulmonary ventilation function tests such as RI, Cdyn, and Cchord.

[2] = tested on: inflammatory factors IL-1β and IL-6; assay: Inflammatory factors in silicosis mice (qPCR of lung tissue, ELISA of BALF); assay type: in vivo, mouse; details: OTX008 5 mg/kg i.p.
Excerpt: as §1, §2, §3, §4

[3] = tested on: fibrosis factors Fn-1 and Col-I, hydroxyproline; assay: Fibrosis factors (qPCR) and HYP content in lung tissue of silicosis mice; assay type: in vivo, mouse; details: OTX008 5 mg/kg i.p.
Excerpt: as §1, §2, §4
30 mg of mouse lung tissue was detected using an HYP kit (NBP2-59747, Novus Biologicals, Littleton, CO, USA).

silicosis mice [4] = assay: Pathological staining (HE, Masson) of lung tissue of silicosis mice; assay type: in vivo, mouse; details: OTX008 5 mg/kg i.p.
Excerpt: as §1
The left lung was fixed in 4% paraformaldehyde for 72 h, dehydrated, paraffin-embedded, sectioned (to 5 μm), and subjected to HE staining and Masson staining, respectively. The HE staining was conducted to calculate the inflammation score based on Szapiel's score. The scoring method included no inflammation (grade 0), mild (grade 1), moderate (grade 2), and severe (grade 3); Masson staining was conducted to evaluate the degree of fibrosis based on the King score. Specifically, different silicosis nodules were evaluated for fibrosis degree according to King's method, with levels ranging from 0 to 5. Each silicosis nodule was assigned a corresponding fibrosis damage score, which was calculated as the fibrosis level score (0-5) multiplied by its percentage of the total area of the tissue section. The sections were scanned, photographed and counted by a 3D HISTECH digital slide scanner.

SMILES: CN(C)CCNC(=O)COc1c2cccc1Cc1cccc(c1OCC(=O)NCCN(C)C)Cc1cccc(c1OCC(=O)NCCN(C)C)Cc1cccc(c1OCC(=O)NCCN(C)C)C2 [OTX008]
- Galectin-1 translation level in alveolar lavage fluid (Galectin-1; OTX008 5 mg/kg i.p., ELISA): decreased
- Lgals1 transcription level in lung tissue (Galectin-1; OTX008 5 mg/kg i.p., qPCR): decreased
- levels of Galectin-1 (transcription and translation) (Galectin-1; OTX008 5 mg/kg intraperitoneal, once every other day for 3 weeks): effectively inhibited
- lung function: inspiratory capacity (IC) (silicosis mice [1]; FIG. 3A): improved significantly
- lung function: inspiratory resistance (RI) (silicosis mice [1]; FIG. 3B): improved significantly
- lung function: dynamic compliance (Cdyn) (silicosis mice [1]; FIG. 3C): improved significantly
- lung function: quasi-static compliance (Cchord) (silicosis mice [1]; FIG. 3D): improved significantly
- concentration of IL-1β in alveolar lavage fluid ([2]; ELISA, FIG. 4C): decreased
- concentration of IL-6 in alveolar lavage fluid ([2]; ELISA, FIG. 4D): decreased
- transcription level of Il-1β in lung tissue ([2]; qPCR, FIG. 4A): decreased
- transcription level of Il-6 in lung tissue ([2]; qPCR, FIG. 4B): decreased
- collagen-specific amino acid HYP in lung tissue ([3]; HYP kit, FIG. 6C): decreased
- transcription level of Col-I in lung tissue ([3]; qPCR, FIG. 6A): decreased
- transcription level of Fn-1 in lung tissue ([3]; qPCR, FIG. 6B): decreased
- progression of pulmonary fibrosis (silicosis mice [4]): effectively alleviate
- fibrosis lesions (Masson staining) (silicosis mice [4]; FIGS. 7A-7D): reduced
- inflammatory infiltration in the lungs (silicosis mice [4]; HE staining): reduced
- degree of the disease (lesions) (silicosis mice [4]; Masson staining): alleviated
